Assay results as given in publication PMC5071873, “The Effects of Puerarin on Rat Ventricular Myocytes and the Potential Mechanism” (Scientific Reports, 2016).
pIC50: −log10 of the molar value.

How the values were obtained:
Kv7.1 = biological target: T1, Kv7.1 (Homo sapiens, UniProt P51787); assay: Single-channel inside-out patch clamp recording of Kv7.1; type: cell-based; conditions: puerarin 100 μM, inside-out, intracellular side
T1 construct: expressed in transfected cells; host or cells: HEK293
Protocol: The Tyrode’s solution contained (mM): 126 NaCl, 5.4 KCl, 1.8 CaCl2, 1 MgCl2, 0.33 NaH2PO4, 10 HEPES and 10 glucose, pH 7.4 (adjusted with NaOH). The Ca^2+-free Tyrode’s solution was prepared by removing CaCl2 from the Tyrode’s solution. The Kreb’s solution used for cell storage contained (mM): 70 glutamic acid, 30 KCl, 15 taurine, 0.5 MgCl2, 10 KH2PO4, 0.5 EGTA, 10 HEPES, 10 glucose, and 1% albumin, pH 7.4 (adjusted with KOH). The enzyme solution used for the rat cardiomyocyte isolation contained 0.08 g/L collagenase (type II) and 1.0 g/L BSA in Kreb’s solution. For action potential recording on cardiomyocyte, the pipette solution contained (mM): 100 potassium aspartate, 30 KCl, 1 MgCl2, 5 Mg-ATP, 5 EGTA, 5 HEPES, pH 7.3 (adjusted with KOH); the Tyrode’s solution was used as the standard bath solution. For whole-cell recording of IKs on myocytes, the pipette solution contained (mM): 125 potassium aspartate, 20 KCl, 1 MgCl2, 5 Mg-ATP, 10 EGTA, 5 HEPES, pH 7.3 (adjusted with KOH); the bath solution contained (mM): 132 NaCl, 4 KCl, 1.8 CaCl2, 1.2 MgCl2, 10 HEPES, 5 glucose, pH 7.4 (adjusted with NaOH). […]
Single-channel activity was recorded at a series of holding levels ranging from 10 mV of 50 mV. […] Single-channel events were listed and analysed by pclampfit 9.0 (single-channel search-in-analyse function). […]

Kir2.1 = biological target: T2, Kir2.1 (Homo sapiens, UniProt P63252); assay: Whole-cell patch clamp of Kir2.1 currents (ramp voltage protocol) in transfected HEK293 cells; type: cell-based
T2 construct: expressed in transfected cells; host or cells: HEK293
T2 sequence (P63252 1-427): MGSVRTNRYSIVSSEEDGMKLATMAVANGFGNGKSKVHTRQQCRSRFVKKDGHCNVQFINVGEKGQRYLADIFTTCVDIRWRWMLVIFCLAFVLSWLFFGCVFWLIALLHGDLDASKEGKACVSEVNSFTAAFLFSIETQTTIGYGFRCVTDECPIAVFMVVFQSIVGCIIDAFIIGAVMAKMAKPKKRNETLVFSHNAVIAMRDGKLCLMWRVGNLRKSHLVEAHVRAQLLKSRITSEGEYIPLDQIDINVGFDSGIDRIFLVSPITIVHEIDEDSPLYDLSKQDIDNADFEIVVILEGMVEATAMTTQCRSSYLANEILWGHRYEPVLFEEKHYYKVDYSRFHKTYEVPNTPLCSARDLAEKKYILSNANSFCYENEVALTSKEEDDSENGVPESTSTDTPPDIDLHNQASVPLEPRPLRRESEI
Protocol: The Tyrode’s solution contained (mM): 126 NaCl, 5.4 KCl, 1.8 CaCl2, 1 MgCl2, 0.33 NaH2PO4, 10 HEPES and 10 glucose, pH 7.4 (adjusted with NaOH). The Ca^2+-free Tyrode’s solution was prepared by removing CaCl2 from the Tyrode’s solution. The Kreb’s solution used for cell storage contained (mM): 70 glutamic acid, 30 KCl, 15 taurine, 0.5 MgCl2, 10 KH2PO4, 0.5 EGTA, 10 HEPES, 10 glucose, and 1% albumin, pH 7.4 (adjusted with KOH). The enzyme solution used for the rat cardiomyocyte isolation contained 0.08 g/L collagenase (type II) and 1.0 g/L BSA in Kreb’s solution. For action potential recording on cardiomyocyte, the pipette solution contained (mM): 100 potassium aspartate, 30 KCl, 1 MgCl2, 5 Mg-ATP, 5 EGTA, 5 HEPES, pH 7.3 (adjusted with KOH); the Tyrode’s solution was used as the standard bath solution. For whole-cell recording of IKs on myocytes, the pipette solution contained (mM): 125 potassium aspartate, 20 KCl, 1 MgCl2, 5 Mg-ATP, 10 EGTA, 5 HEPES, pH 7.3 (adjusted with KOH); the bath solution contained (mM): 132 NaCl, 4 KCl, 1.8 CaCl2, 1.2 MgCl2, 10 HEPES, 5 glucose, pH 7.4 (adjusted with NaOH). 3 μM nifedipine and 5 μM E-4031 were used to block the calcium current and IKr, respectively. For whole-cell recording on HEK-293 cells, the pipette solution contained (mM): 140 KCl, 2 MgCl2, 10 HEPES, 0.1 EGTA, 4 K2-ATP, pH 7.3 (adjusted with KOH); the bath solution contained (mM): 120 NaCl, 5 KCl, 1.5 CaCl2, 1 MgCl2, 10 HEPES, 10 glucose, pH 7.4 (adjusted with NaOH). For single-channel recording, the pipette solution (extracellular) contained (mM): 145 KCl, 10 HEPES, 10 glucose, pH 7.4 (adjusted with KOH); the bath solution (intracellular) contained (mM): 145 KCl, 1.2 MgCl2, 10 HEPES, 0.1 EGTA, pH 7.38 (adjusted with KOH).
Cell suspensions were transferred into a chamber on the stage of a Nikon Eclipse Ti inverted microscope (Tokyo, Japan). The whole-cell recordings were performed using isolated single ventricular myocytes. Patch electrodes were pulled from a horizontal microelectrode puller (P-1000, Sutter Instrument Co, USA) and fire polished to final tip resistance of 4.0–8.0 MΩ when filled with internal solutions. Signals were amplified with an Axopatch 200B amplifier (Axon Instruments, USA) and filtered at 1 kHz. The pCLAMP 9.0 software was used to generate current and voltage clamp protocols, acquire data, and analyse the current traces. The whole-cell series resistance was compensated to more than 80%. All of the experiments were performed at room temperature (22 ± 1 °C). The whole-cell IK1 was elicited by a ramp voltage protocol from −140 to + 40 mV in 1 s, or at a 0 mV holding potential to test potentials from −140 to + 40 mV in 10 mV increments. The IK1 was calculated as the difference between the peak inward current and the holding current level. The whole-cell Kv7.1/IKs were elicited from a −30 mV holding potential to test potentials from −80 to + 40 mV in 10 mV increments.
Human Kir2.1 cDNA, Kir2.3 cDNA, Kv7.1 cDNA and KCNE1 cDNA, was cloned in Human Embryonic Kidney 293 cells, respectively. In some cases, Kv7.1 cDNA and KCNE1 cDNA were simultaneously cloned in Human Embryonic Kidney 293 cells.

O=c1c(-c2ccc(O)cc2)coc2c([C@@H]3O[C@H](CO)[C@@H](O)[C@H](O)[C@H]3O)c(O)ccc12 [Puerarin, 8-c-glucoside of daidzein] was tested, and the “open probability of Kv7.1 channel” value (Kv7.1) was “significantly reduced”, the “effect on Kir2.1 currents at low concentrations” value (Kir2.1; 10 μM, 1 mM (so in the source)) was “little effect” and the “saturation dosage, inhibition of Kir2.1” value (Kir2.1; HEK293) was 50 mM. The “maximal inhibitory effect upon Kir2.1” value (Kir2.1; HEK293, n = 5 each point) was 53.11 ± 1.84%, the pIC50 (Kir2.1; HEK293, non-linear Hill fit, n = 5 each point, read-out: IC50, inhibition of Kir2.1 currents) was 2.90 and the “Hill coefficient, inhibition of Kir2.1” value (Kir2.1; non-linear Hill fit) was 0.990.
